Activity calls are given as the source filed them.
What was measured:
[1] = molecular target: Heat shock protein HSP 90-alpha (Homo sapiens, UniProt P07900); assay: Luminescence-based dose response biochemical high throughput screening assay for inhibitors of the Heat Shock Protein 90 (HSP90). [Related pubchem assays: 1831 (Summary AID.), 1846 (Confirmation screen.), 1789 (Primary screen.)]
[2] = molecular target: T1, Voltage-gated inwardly rectifying potassium channel KCNH2 (Homo sapiens, UniProt Q12809); assay: concentration-dependent hERG rescue from blockers – cell-based, thallium flux, dose response (AID 2121); format: ADME
T1 sequence (Q12809 whole entry): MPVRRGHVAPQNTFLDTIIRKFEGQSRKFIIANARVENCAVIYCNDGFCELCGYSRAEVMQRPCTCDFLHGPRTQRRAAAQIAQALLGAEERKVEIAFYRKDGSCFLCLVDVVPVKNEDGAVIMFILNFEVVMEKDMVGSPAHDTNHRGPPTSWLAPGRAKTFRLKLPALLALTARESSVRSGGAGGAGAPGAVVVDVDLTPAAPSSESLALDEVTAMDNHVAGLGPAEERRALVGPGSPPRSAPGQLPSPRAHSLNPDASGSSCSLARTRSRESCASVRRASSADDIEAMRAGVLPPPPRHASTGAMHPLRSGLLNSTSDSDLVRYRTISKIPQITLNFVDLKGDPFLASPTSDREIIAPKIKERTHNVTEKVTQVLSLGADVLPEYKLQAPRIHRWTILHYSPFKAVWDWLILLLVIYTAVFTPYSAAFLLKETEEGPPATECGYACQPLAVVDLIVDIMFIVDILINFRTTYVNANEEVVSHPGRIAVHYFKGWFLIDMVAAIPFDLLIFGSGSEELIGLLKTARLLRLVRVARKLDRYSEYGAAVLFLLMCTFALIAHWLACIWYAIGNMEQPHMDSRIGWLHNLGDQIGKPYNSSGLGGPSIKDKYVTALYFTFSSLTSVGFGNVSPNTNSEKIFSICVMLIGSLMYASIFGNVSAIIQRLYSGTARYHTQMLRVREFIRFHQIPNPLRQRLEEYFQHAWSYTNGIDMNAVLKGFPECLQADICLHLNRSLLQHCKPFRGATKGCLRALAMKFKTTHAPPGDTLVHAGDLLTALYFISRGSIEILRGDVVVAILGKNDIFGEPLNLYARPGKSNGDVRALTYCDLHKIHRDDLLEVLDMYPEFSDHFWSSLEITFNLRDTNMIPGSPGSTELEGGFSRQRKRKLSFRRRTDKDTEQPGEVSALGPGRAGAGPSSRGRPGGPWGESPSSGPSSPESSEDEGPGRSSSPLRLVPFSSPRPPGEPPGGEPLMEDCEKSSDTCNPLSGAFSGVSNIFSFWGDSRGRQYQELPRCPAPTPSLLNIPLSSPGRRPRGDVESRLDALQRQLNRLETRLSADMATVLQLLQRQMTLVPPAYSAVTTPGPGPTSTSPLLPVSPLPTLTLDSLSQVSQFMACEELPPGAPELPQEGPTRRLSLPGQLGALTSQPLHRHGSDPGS

[3] = molecular target: T1, Voltage-gated inwardly rectifying potassium channel KCNH2; assay: dose-dependent reversal of dofetilide hERG block – manual patch clamp, HEK293 cells, dose response (AID 2638); format: ADME
[4] = Luminescence Cell-Based Dose Response HTS to Identify Inhibitors of 5'UTR Stem-Loop Driven Prion Protein mRNA Translation in H4 Neuroglioblastoma Cells. [Related pubchem assays: 1827 (Project Summary), 1813 (Primary HTS)]; format: functional
[5] = alpha-synuclein stem-loop luciferase translation blockers – H4 neuroglioma cells, luminescence, confirmation (AID 1988); format: functional, cell-based
[6] = luciferase reporter signal suppression in cells – H4 neuroglioma cells, luminescence, dose response (AID 1990); format: functional, cell-based
[7] = IC50 of Artemis nuclease activity blockers – biochemical, fluorescence intensity, dose response (AID 720701); format: functional;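 note: Artemis endonuclease enzyme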
[8] = molecular target: T2, NADPH oxidase 1 (Homo sapiens, UniProt Q9Y5S8); assay: potency of NOX1 inhibition in cells – cell-based, luminescence, cherry picks 2, dose response (AID 434997); format: functional
T2 sequence (Q9Y5S8 whole entry): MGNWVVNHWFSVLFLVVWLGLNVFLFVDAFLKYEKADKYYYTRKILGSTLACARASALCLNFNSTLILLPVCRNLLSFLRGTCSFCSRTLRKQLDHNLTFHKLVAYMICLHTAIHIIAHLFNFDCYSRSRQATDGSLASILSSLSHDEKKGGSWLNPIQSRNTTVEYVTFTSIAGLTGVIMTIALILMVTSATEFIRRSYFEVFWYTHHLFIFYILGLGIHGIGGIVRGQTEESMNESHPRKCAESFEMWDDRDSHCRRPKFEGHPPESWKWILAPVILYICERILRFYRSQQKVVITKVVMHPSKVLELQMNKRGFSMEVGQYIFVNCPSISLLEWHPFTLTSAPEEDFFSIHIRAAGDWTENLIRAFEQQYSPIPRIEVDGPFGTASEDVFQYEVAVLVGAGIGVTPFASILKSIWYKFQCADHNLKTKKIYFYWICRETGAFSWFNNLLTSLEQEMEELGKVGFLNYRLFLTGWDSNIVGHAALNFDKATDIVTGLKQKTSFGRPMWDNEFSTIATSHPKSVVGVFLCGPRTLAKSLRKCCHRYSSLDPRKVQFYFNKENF

[9] = molecular target: T2, NADPH oxidase 1; assay: Late stage results from the probe development effort to identify inhibitors of NOX1: HEK/293 IC50. [Related pubchem assays: 1796 (Summary AID (NOX1)), 2752 (Primary screen (NOX1 inhibitors, synthesized analogs set 2)), 2664 (Primary screen (NOX1 inhibitors, synthesized analogs)), 1792 (Primary Screen (NOX1)), 2545 (Confirmation screen (NOX1 …; format: functional
[10] = ATP-based viability loss in HeLa cells – cell-based, CellTiter-Glo luminescence, dry powder, set 2, cytotoxicity control, dose response (AID 720593); format: functional
[11] = molecular target: Nonstructural protein 1 (Influenza A virus, UniProt Q194T2); format: functional, Influenza A virus (A/California/07/2009(H1N1))
Sequence of Nonstructural protein 1 (Q194T2 whole entry): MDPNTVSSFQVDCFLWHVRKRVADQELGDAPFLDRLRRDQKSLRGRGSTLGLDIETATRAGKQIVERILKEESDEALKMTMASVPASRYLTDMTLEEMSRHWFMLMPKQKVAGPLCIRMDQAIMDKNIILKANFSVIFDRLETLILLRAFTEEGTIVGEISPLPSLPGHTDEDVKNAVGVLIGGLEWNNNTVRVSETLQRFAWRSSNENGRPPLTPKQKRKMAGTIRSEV

[12] = system: Streptococcus sp. 'group A'; assay: Streptococcus pyogenes SK(-)GAS viability under kanamycin – luminescence, BacTiterGlo, confirmation, counter-screen for streptokinase expression inhibitor project, dose response (AID 1900); format: functional, organism-based
[13] = molecular target: T3, Streptokinase A (Streptococcus pyogenes serotype M1, UniProt P10520); assay: viability-normalized secreted streptokinase activity reduction – plasminogen activation absorbance, OD405, dose response (AID 1914); format: functional, Streptococcus pyogenes M1 GAS;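 note: secreted streptokinase activity via plasminogen activation per viability signal from cell pellet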
T3 sequence (P10520 whole entry): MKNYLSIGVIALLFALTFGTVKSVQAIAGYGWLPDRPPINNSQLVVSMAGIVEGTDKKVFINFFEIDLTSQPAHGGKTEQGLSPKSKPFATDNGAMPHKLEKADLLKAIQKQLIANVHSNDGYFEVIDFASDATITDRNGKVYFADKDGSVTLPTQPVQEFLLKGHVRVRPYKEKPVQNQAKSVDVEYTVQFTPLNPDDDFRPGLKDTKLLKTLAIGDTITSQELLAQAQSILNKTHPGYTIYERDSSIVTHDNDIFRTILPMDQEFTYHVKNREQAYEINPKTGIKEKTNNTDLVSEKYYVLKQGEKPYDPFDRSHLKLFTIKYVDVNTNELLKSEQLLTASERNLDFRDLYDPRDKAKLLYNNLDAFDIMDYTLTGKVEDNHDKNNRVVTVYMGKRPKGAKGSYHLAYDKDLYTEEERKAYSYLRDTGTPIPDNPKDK

[14] = ATP-based viability loss in HEK293T cells – cell-based, CellTiter-Glo luminescence, dry powder, set 2, cytotoxicity control, dose response (AID 720595); format: functional; details: HEK293
[15] = system: Streptococcus; assay: GAS UMAA2166 growth inhibition – luminescence, BacTiterGlo, counter-screen for streptokinase expression inhibitor project, dose response (AID 1915); format: functional, organism-based;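 note: potency for reduction of bacterial viability or growth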
[16] = molecular target: Dual specificity tyrosine-phosphorylation-regulated kinase 1A (Rattus norvegicus, UniProt Q63470); format: biochemical, Homo sapiens
[17] = molecular target: Bifunctional protein GlmU (Mycobacterium tuberculosis, UniProt P9WMN3); assay: Inhibitors of Mycobacterial Glucosamine-1-phosphate acetyl transferase (GlmU). Secondary screen.; set-up: species or system Mycobacterium tuberculosis H37Rv
Sequence of Bifunctional protein GlmU (P9WMN3 whole entry): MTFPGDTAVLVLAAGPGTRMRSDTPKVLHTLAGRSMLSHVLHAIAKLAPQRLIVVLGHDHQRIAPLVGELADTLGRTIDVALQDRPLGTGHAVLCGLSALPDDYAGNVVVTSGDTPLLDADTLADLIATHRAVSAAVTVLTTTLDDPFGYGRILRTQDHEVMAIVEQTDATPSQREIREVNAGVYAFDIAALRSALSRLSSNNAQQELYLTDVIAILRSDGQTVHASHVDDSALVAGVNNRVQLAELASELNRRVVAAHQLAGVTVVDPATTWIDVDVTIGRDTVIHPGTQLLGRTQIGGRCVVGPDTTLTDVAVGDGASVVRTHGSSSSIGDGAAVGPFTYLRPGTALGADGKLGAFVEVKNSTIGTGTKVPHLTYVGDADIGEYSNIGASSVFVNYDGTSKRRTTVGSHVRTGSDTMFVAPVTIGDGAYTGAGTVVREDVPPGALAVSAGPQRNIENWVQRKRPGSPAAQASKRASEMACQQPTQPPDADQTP

[18] = system: Vero; assay: mammalian cell viability reduction – secondary assay, cytotoxicity control for West Nile virus antiviral project, dose response (AID 1650); format: functional; details: Chlorocebus sabaeus
[19] = molecular target: Peroxisome proliferator-activated receptor gamma/Nuclear receptor corepressor 2 (Homo sapiens, UniProt P37231+Q9Y618); assay: Counterscreen for NR2E3 inverse agonists: TR-FRET-based biochemical high throughput dose response assay to identify inverse agonists of the interaction between peroxisome proliferator-activated receptor gamma (PPARg) and nuclear receptor co-repressor 2 (NCOR2).; format: functional
[20] = molecular target: T4, Estrogen receptor (Homo sapiens, UniProt P03372);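 note: potency for inhibiting coactivator peptide recruitment to the receptor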
T4 sequence (P03372 whole entry): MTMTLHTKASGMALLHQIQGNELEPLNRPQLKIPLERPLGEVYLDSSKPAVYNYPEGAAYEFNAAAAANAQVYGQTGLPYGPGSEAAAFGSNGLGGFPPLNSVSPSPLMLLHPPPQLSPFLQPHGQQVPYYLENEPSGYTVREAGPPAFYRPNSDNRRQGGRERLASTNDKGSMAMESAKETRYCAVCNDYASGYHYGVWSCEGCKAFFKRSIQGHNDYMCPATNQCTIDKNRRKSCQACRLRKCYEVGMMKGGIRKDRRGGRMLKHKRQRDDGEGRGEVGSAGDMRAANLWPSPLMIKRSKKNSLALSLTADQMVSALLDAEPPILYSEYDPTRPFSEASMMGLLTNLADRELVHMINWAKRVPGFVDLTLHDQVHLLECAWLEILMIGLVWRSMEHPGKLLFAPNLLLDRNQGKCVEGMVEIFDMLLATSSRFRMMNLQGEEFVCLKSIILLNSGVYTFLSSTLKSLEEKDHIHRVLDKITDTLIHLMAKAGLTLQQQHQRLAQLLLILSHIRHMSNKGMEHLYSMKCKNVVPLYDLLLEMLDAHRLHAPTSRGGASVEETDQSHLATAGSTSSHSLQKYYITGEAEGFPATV

[21] = molecular target: Photoreceptor-specific nuclear receptor (Homo sapiens, UniProt Q9Y5X4); assay: ligands suppressing NR2E3 nuclear receptor activity – biochemical, TR-FRET, dose response (AID 463256); format: functional
Sequence of Photoreceptor-specific nuclear receptor (Q9Y5X4 whole entry): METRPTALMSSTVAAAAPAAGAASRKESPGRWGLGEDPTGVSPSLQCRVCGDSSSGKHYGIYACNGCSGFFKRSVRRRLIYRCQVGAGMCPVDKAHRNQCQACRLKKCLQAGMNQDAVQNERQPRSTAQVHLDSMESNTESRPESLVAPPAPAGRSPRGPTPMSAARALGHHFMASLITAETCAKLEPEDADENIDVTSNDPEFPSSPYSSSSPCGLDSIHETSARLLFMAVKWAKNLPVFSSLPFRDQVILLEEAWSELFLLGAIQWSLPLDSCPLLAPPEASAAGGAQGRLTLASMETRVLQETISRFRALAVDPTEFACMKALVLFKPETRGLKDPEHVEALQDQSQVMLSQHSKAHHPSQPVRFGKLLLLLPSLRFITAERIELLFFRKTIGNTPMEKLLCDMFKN

[22] = molecular target: 5-hydroxytryptamine receptor 1A (Homo sapiens, UniProt P08908); format: functional
[23] = molecular target: T5, Heat shock factor protein 1 (Mus musculus, UniProt P38532); assay: decrease of HSF1-responsive luciferase luminescence – cell-based, NIH3T3, dose retest, confirmation (AID 2382); format: functional;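 note: NIH3T3 fibroblasts with HSF1-driven luciferase reporter stressed by proteasome inhibitor MG132; luminescence from HSF1-driven luciferase expression after 8 hours of MG132 stress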
T5 sequence (P38532 whole entry): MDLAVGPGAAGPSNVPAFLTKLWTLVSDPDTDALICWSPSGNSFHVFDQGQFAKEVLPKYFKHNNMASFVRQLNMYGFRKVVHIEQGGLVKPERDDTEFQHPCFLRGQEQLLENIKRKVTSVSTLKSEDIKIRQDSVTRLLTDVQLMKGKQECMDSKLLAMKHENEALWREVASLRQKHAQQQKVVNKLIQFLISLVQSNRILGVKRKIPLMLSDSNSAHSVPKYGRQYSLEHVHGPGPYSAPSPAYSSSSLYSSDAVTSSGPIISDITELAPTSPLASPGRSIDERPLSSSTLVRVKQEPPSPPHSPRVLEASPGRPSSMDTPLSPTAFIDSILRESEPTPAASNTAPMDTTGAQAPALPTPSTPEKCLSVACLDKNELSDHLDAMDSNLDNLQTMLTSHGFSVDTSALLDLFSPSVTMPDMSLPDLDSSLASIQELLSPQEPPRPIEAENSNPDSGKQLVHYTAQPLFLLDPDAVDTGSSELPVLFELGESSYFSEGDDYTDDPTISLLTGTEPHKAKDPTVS

[24] = molecular target: Ephrin type-A receptor 4 (Mus musculus, UniProt Q03137); assay: EphA4 ligand-binding antagonists – biochemical, colorimetric, mouse EphA4, primary screen (AID 689); format: functional
Sequence of Ephrin type-A receptor 4 (Q03137 whole entry): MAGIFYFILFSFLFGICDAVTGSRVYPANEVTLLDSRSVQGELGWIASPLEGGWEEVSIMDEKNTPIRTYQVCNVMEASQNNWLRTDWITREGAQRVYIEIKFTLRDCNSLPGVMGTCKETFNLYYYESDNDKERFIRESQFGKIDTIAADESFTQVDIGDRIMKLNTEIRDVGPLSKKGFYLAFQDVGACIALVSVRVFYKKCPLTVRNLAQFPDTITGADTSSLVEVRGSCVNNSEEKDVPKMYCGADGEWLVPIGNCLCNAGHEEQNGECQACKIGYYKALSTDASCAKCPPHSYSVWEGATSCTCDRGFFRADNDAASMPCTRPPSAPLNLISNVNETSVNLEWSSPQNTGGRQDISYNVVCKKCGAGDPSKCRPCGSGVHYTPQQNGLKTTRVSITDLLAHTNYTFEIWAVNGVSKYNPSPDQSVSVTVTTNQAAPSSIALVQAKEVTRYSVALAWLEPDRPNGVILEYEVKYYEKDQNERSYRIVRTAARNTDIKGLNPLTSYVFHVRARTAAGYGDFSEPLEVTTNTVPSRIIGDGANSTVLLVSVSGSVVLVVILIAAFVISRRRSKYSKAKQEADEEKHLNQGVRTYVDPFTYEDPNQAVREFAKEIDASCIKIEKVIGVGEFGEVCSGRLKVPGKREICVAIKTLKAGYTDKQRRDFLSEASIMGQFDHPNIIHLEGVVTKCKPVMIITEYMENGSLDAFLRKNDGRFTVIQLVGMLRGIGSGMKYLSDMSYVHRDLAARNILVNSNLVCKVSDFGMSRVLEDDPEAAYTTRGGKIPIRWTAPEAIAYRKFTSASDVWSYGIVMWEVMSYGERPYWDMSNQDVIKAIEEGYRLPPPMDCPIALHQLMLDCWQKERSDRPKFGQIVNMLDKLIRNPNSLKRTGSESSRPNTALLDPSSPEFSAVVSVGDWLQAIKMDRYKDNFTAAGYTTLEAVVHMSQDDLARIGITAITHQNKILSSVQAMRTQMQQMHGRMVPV

[25] = viability loss in A549 lung cells – cell-based, 24 h, CellTiter-Glo luminescence, cherry-picks, cytotoxicity control, dose response (AID 1053115); format: functional; details: A549, 24 h
[26] = molecular target: Vasopressin V2 receptor (Homo sapiens, UniProt P30518); assay: Late-stage results from the probe development effort to identify antagonists of arginine vasopressin receptor 1a (AVPR1a): fluorescence-based cell-based dose response AVPR2 inhibition counterscreen assay.; format: functional
Sequence of Vasopressin V2 receptor (P30518 whole entry): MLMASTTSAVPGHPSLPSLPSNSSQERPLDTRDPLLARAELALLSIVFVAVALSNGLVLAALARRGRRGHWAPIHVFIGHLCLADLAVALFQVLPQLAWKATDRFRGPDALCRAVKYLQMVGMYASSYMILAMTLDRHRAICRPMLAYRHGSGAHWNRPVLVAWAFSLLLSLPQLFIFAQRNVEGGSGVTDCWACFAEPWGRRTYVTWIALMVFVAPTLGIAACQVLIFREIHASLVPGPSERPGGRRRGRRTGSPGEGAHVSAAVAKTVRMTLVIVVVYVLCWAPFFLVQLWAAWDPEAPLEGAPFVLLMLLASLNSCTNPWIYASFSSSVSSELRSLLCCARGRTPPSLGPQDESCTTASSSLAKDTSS

[27] = molecular target: Vasopressin V1b receptor (Homo sapiens, UniProt P47901); assay: Late-stage results from the probe development effort to identify antagonists of arginine vasopressin receptor 1a (AVPR1a): fluorescence-based cell-based dose response AVPR1b inhibition counterscreen assay.; format: functional
Sequence of Vasopressin V1b receptor (P47901 whole entry): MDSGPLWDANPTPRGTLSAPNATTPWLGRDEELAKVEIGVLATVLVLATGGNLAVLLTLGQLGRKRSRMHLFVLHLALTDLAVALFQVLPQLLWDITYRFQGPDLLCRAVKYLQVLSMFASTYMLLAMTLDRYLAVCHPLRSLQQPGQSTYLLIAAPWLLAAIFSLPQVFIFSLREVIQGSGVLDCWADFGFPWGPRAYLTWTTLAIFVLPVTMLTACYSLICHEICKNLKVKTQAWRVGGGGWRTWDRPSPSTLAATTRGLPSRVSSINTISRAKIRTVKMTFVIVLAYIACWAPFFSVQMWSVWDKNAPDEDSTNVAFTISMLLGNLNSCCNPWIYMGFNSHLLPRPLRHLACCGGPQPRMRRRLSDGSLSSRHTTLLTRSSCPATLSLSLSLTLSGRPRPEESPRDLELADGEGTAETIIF

[28] = Late-stage results from the probe development effort to identify antagonists of arginine vasopressin receptor 1a (AVPR1a): fluorescence-based cell-based dose response OXTR inhibition counterscreen assay.; format: functional
[29] = Late-stage results from the probe development effort to identify antagonists of arginine vasopressin receptor 1a (AVPR1a): fluorescence-based cell-based dose response AVPR1a inhibition assay.; format: functional
[30] = P. falciparum Dd2 growth inhibitors, dose response, SYBR Green, cherry-picked samples (AID 1159567); format: functional, cell-based
[31] = toxicity to human hepatoma HepG2 cells – cell-based, cherry-picked samples, cytotoxicity control, dose response (AID 1159577); format: functional
[32] = molecular target: G-protein coupled receptor 183 (Homo sapiens, UniProt P32249); assay: SAR confirmation of small molecule antagonists of the EBI2 receptor via a luminescent beta-arrestin assa.; format: functional
Sequence of G-protein coupled receptor 183 (P32249 whole entry): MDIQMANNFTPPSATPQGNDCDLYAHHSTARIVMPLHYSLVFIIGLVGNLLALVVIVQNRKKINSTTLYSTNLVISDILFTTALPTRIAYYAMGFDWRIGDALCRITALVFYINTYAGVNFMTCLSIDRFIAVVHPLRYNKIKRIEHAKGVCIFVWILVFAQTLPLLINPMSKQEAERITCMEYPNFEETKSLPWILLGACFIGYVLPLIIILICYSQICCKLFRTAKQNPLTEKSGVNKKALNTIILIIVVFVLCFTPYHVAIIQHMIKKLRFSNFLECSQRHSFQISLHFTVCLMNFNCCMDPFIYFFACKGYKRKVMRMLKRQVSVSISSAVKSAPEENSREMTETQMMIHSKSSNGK

[33] = cytotoxicity toward Colo320 cells – cell-based, CellTiter-Glo luminescence, IC50, dose response (AID 1117334); format: functional; details: COLO 320
[34] = SNU-C1 cell viability reduction, dose response, CellTiter-Glo luminescence (AID 1117323); format: functional, cell-based
[35] = RKO cell viability reduction, dose response, CellTiter-Glo luminescence (AID 1117322); format: functional
[36] = cytotoxicity toward HCT116 cells – cell-based, CellTiter-Glo luminescence, IC50, dose response (AID 1117332); format: functional; details: HCT-116
[37] = HCT116 cell viability decrease, GSK3B pretreatment – CellTiter-Glo, IC50, dose response (AID 1117339); format: functional; details: HCT-116
[38] = Reduced DLD-1 viability, concentration-response, CellTiter-Glo luminescence (AID 1117352); format: functional
[39] = cytotoxicity toward HT-29 cells – cell-based, CellTiter-Glo luminescence, IC50, dose response (AID 1117330); format: functional
[40] = CellTiter-Glo luminescence survival assay, SW480 colon tumor line, concentration-response curve, half-maximal inhibitory concentration (AID 1117338); format: functional

For `Cc1nc(CS(=O)(=O)c2ccc(Cl)cc2)sc1C(=O)O`, the IC50 [1] was 12.1 µM (not active).
In the case of `O=C(O)c1cc(Cl)ccc1Nc1nc2cc(Cl)ccc2o1`, the EC50 [2] is reported as 11.7 µM (active) and the EC50 [3] is reported as 107 µM (not active).
For `CSc1nnc2c3cc(C)ccc3n(Cc3ccccc3)c2n1`, the EC50 [4] was > 120 µM (not active), the EC50 [5] was > 120 µM (not active) and the EC50 [6] was > 120 µM (not active). For the same compound, the IC50 [7] was 19.8 µM (active).
For `Cc1cc(Cl)ccc1NC(=S)NNC(=S)Nc1ccc(F)cc1`, the IC50 [8] was 0.67 µM (active) and the IC50 [9] was 0.96 µM (active).
With `Cc1ccc(C(=O)Nc2nc(-c3ccccn3)cs2)o1` the AC50 [10] was > 52 µM (inactive), the IC50 [11] was 10.1 µM (active) and the EC50 [12] was 17.9 µM (active). The EC50 [13] was > 150 µM (not active), the AC50 [14] was 29.1 µM (active) and the EC50 [15] was > 150 µM (not active).
In the case of `CC(C)S(=O)(=O)C1=NSC2=NC(=O)/C(=C\c3ccc(-c4cccc(C(=O)O)c4)o3)C(=N)N21`, the AC50 [16] is reported as 8.1 µM (active) and the IC50 [17] is reported as 13.5 µM (active).
For `Cn1cc([N+](=O)[O-])c(C(=O)Nc2ccn(Cc3c(F)c(F)cc(F)c3F)n2)n1`, the CC50 [18] was 20.8 µM (active).
In the case of `Fc1ccc(CNc2nc3ccccc3n3cnnc23)cc1`, the IC50 [19] is reported as 1.42 µM (active), the IC50 [20] is reported as > 50 µM (not active) and the IC50 [21] is reported as 2.69 µM (active).
In the case of `COc1cc(CN2CCN(c3cccc(C)c3C)CC2)cc(OC)c1O`, the EC50 [22] is reported as > 50 µM (not active) and the EC50 [23] is reported as > 195 µM (not active).
With `O=C1/C(=C\c2ccco2)SC(=S)N1Cc1ccccc1` the IC50 [24] was 3.21 µM (active).
With `O=C(Nc1ccc2c(c1)[C@@H]1C[C@@H](CC(=O)N3CCCCC3)O[C@@H](CO)[C@@H]1O2)Nc1ccccc1F` the AC50 [25] was 47.8 µM (active).
With `Cc1ccnc(N2CCN(C(=O)N(CC3CC3)c3ccc(Cl)cc3)CC2)c1` the IC50 [26] was > 50 µM (inactive), the IC50 [27] was > 50 µM (inactive) and the IC50 [28] was > 50 µM (inactive). For the same compound, the IC50 [29] was 0.0158 µM (active).
In the case of `COc1ccc2c3c([nH]c2c1)[C@@H](CO)N(C(=O)Nc1ccc(F)cc1)CC31CN(Cc2ccccc2OC)C1`, the AC50 [30] is reported as 3.7 µM (active) and the AC50 [31] is reported as 9.77 µM (active).
With `O=C(/C=C/c1ccccc1C(F)(F)F)N1CCN(S(=O)(=O)c2ccc(Br)cc2)CC1` the IC50 [32] was 0.31 µM (active).
For `CCCCCCCCCCCCCCCCCCOP(=O)([O-])OC1CC[N+](C)(C)CC1` [PERIFOSINE], the IC50 [33] was 2.36 µM (active), the IC50 [34] was > 20 µM (inactive) and the IC50 [35] was 2.1 µM (active). The IC50 [36] was 3.17 µM (active), the IC50 [37] was 5.79 µM (inactive) and the IC50 [38] was > 20 µM (inactive). The IC50 [39] was 6.9 µM (inactive) and the IC50 [40] was 0.852 µM (active).

From ChEMBL document CHEMBL1201862, “PubChem BioAssay data set” (2004)
